Among the data in paper doi:10.1101/2021.04.29.441652v1 (biorxiv, 2021) are remaining activity values, retold here.

This test addresses human σ2 receptor (TMEM97) (Homo sapiens, UniProt Q5BJF2). The experiment in a line: biochemical. Format: Expi293 membranes. As to conditions: read-out: % of control remaining.

Sequence of human σ2 receptor (TMEM97) (Q5BJF2 whole entry): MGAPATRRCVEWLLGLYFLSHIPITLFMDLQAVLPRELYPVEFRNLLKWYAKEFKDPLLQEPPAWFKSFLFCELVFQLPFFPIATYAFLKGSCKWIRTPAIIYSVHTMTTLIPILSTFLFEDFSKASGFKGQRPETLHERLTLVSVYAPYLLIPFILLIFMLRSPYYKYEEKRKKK

With `CC(=O)NCCN1CCC(NC(=O)c2c(Cl)n[nH]c2C)CC1` [ZINC001055479120], the remaining activity at 1 µM was determined as 98.5%.
Regarding `O=C(N[C@H]1CCN(c2cc(Cl)c(O)nn2)C1)c1c[nH]c(=O)cn1` [ZINC001058532763], the remaining activity at 1 µM was 95.3%.
Regarding `Cn1nnc2c(N3C[C@H]4CC[C@@H](C3)N4C(=O)c3cc[nH]n3)ncnc21` [ZINC001058732454], the remaining activity at 1 µM was 93.6%.
The value for `O=C(NCC[C@@H]1CCN(C(=O)c2ccncn2)C1)c1c[nH]c(=O)cn1` [ZINC001060201073] was 76%; that for `CN1CCC[C@@H]1C(=O)NC[C@H]1CCCN1c1ncnc2scnc12` [ZINC001061317651] was 62.6%; that for `CN1CCC(C(=O)NC[C@@H]2CCN(c3ncc(Cl)cn3)C2)CC1` [ZINC001061620290] was 91.3%.
As to `CN(C)C(=O)c1cncc(N[C@H]2CC[C@H](NC(=O)C(N)=O)CC2)n1` [ZINC001063398490], the remaining activity at 1 µM worked out at 146%.
Turning to `Cn1cc(C(=O)N2CCO[C@@H](CNC(=O)C=C3CCC3)C2)ncc1=O` [ZINC001065434920], the remaining activity at 1 µM came to 57.8%.
Turning to `O=C(c1cccnn1)N1CCC(O)(CNc2cncc(Cl)n2)CC1` [ZINC001067478391], the remaining activity at 1 µM turned out to be 104%.
As for `C[C@@H]1CN(C(=O)Cc2cncnc2)C[C@H]1NC(=O)CCn1cccn1` [ZINC001071984909], the remaining activity at 1 µM is 89.9%.
Take `CNC(=O)[C@@H](C)N1CCC2(CN(C(=O)c3c[nH]c4nccc-4c3)C2)C1` [ZINC001072835483]: the remaining activity at 1 µM came out at 81.8%.
With `CCc1cc(C(=O)NC[C@H]2CN(CCn3cncn3)CCCO2)no1` [ZINC001073859800], the remaining activity at 1 µM came out at 110%.
The figure for `CN1CC[C@@H](C(=O)NC[C@H]2CN(Cc3csnn3)CCCO2)C1` [ZINC001073886256] is 113%; for `O=C(C[C@H]1C=CCC1)NCC1(O)CCN(C(=O)c2cncnc2)CC1` [ZINC001074556982] it is 89.6%.
The value for `NC(=O)C(=O)N1CCC(O)(CNC(=O)[C@H]2CCCCC2(F)F)CC1` [ZINC001074702922] was 109%; that for `Cc1c(F)cccc1C(=O)N[C@@H]1CN(CCC2CCCCC2)C[C@H]1O` [ZINC001077034834] was 16.5%.
As for `C[C@@H](CCNC(=O)C1(CN(C)C)CC1)NC(=O)c1ncccc1O` [ZINC001078073018], the remaining activity at 1 µM is 111%.
Regarding `CC[C@@H]1[C@@H](NC(=O)Cc2ccc(C)cc2)CCN1C[C@@H]1CCOC1` [ZINC001087646081], the remaining activity at 1 µM was 99.4%.
The value for `Cc1ccoc1CC(=O)N1C[C@H]2CCN(CC(=O)N(C)C)C[C@H]2C1` [ZINC001088099598] was 132%; that for `Cc1ccc(CN2[C@@H]3CC[C@H]2[C@@H](NC(=O)c2cn(C)cn2)C3)c(C)c1` [ZINC001095312060] was 69.4%; that for `C[C@H](C(=O)N[C@H]1C[C@H]2CC[C@@H]1N2CCn1cccn1)c1ccccc1F` [ZINC001096194954] was 118%.
As for `O=C(N[C@@H]1CCN(CCC2CCCC2)C[C@@H]1O)C1(C(F)F)CCC1` [ZINC001099969021], the remaining activity at 1 µM turned out to be 28.5%.
In the case of `Cc1cc(C)nc(NC[C@@H](O)CNC(=O)[C@@H]2CCc3c[nH]nc3C2)n1` [ZINC001105862991], the remaining activity at 1 µM amounted to 76.1%.
For `C[C@H](C(=O)N[C@H]1C[C@H]2CC[C@@H]1N2CCOCC1CC1)c1cccs1` [ZINC001109713565], the remaining activity at 1 µM is 28.7%.
`O=C1CN(CC(=O)N[C@H](CNc2cc(F)ncn2)C2CC2)CCN1` [ZINC001109958062]: the remaining activity at 1 µM was 90.2%.
Take `CN(C)S(=O)(=O)CCC(=O)N[C@H]1[C@@H]2CN(Cc3ccon3)C[C@@H]21` [ZINC001115282185]: the remaining activity at 1 µM is 109%.
Consider `CO[C@@H](CNC(=O)C(=O)N1C[C@@H]2C(=O)N(C)C(=O)[C@@H]2C1)CC(C)C` [ZINC001119173847], for which the remaining activity at 1 µM was 95.8%.
With `O=C(NCCN1CCNC1=O)C(=O)NC[C@H]1CCc2ccccc21` [ZINC001119470858], the remaining activity at 1 µM was determined as 107%.
For the molecule `CN(C[C@@H](O)CN(C)c1ncc(F)cn1)C(=O)CCc1cnn[nH]1` [ZINC001125309519], the remaining activity at 1 µM was determined as 88%.
As for `CN1CCC[C@@H]1C(=O)NC[C@H]1CN(CCCC(C)(C)C)CCCO1` [ZINC001149399826], the remaining activity at 1 µM was determined as 96.4%.
Consider `C(=C\c1ccccc1)/CNc1ccc2c(n1)CCC2` [ZINC001156463732], for which the remaining activity at 1 µM stood at 32.6%.
In the case of `Cc1cc(C)cc(C2=CCN(CCC(=O)N3CCc4ccccc43)CC2)c1` [ZINC001168222793], the remaining activity at 1 µM was 13.7%.
For `C[C@@H](C(=O)NCc1ccc(Cl)cc1)N1CCC(C(C)(C)C)CC1` [ZINC001169307444], the remaining activity at 1 µM was 21.2%.
Regarding `CCOCCNC(=O)CN1C[C@@H](O)[C@H](NC(=O)[C@@]23COC[C@@H]2C3)C1` [ZINC001193095852], the remaining activity at 1 µM was determined as 112%.
The value for `COc1ccc2c(c1)C[C@H](CN1CCCC[C@H]1CCC(=O)OC(C)(C)C)O2` [ZINC001195393353] was 54.5%; that for `CCc1ccc(F)cc1C(=O)N1CCCN(CCOC(C)C)CC1` [ZINC001196417557] was 71.9%.
The figure for `Cc1cc(C(=O)N2CCCO[C@@H](CNCC(=O)NC3CC3)C2)n(C)n1` [ZINC001199969207] is 124%; for `CN(C)S(=O)(=O)N(C)CC(=O)N[C@@H]1C[C@H](NCCO)C12CCC2` [ZINC001202928172] it is 117%; for `C[C@@H]1CN([C@H]2CCc3ccccc3NC2=O)C[C@H]1NC(=O)/C=C\C(C)(C)C` [ZINC001206651458] it is 109%.
As to `CCNS(=O)(=O)CCNC(=O)C(=O)N[C@@H](C)C1=CCN(C)CC1` [ZINC001261177261], the remaining activity at 1 µM amounted to 70.9%.
For `CN1C(=O)[C@H]2CN(C(=O)C(=O)NC3CCC(F)(F)CC3)C[C@H]2C1=O` [ZINC001261948364], the remaining activity at 1 µM came to 90.8%.
The figure for `CC[C@H]1CCN(CC(=O)Nc2cc(Cl)ccc2C#N)[C@H]1C` [ZINC001307701283] is 62.5%.
For `FC(F)(F)c1ccnc([C@H]2CCN(CCCc3ccc4c(c3)CCO4)C2)n1` [ZINC001308961074], the remaining activity at 1 µM worked out at 2.4%.
For the molecule `OC1(CN2CC(Cc3ccccc3C(F)(F)F)C2)CCC1` [ZINC001320149247], the remaining activity at 1 µM stood at 14.7%.
As to `COC(=O)N1CCC[C@H](NC(=O)C(=O)N2CC[C@@](O)(C3CC3)C2)C1` [ZINC001323717111], the remaining activity at 1 µM came to 95%.
Take `COC(=O)[C@@H]1C[C@H](O)CN(C(=O)C(=O)N[C@H](C)C2CCOCC2)C1` [ZINC001326422624]: the remaining activity at 1 µM is 99.2%.
On to `C[C@@H](CNC(=O)C(=O)NCc1nnn(C)n1)N(C)Cc1ccccc1` [ZINC001328800283], for which the remaining activity at 1 µM was determined as 86.4%.
Take `COc1cccc2c1OC[C@H](NC(=O)C(=O)N[C@@H]1CC(=O)N(C)C1)C2` [ZINC001341791776]: the remaining activity at 1 µM worked out at 222%.
The value for `O=C(Nc1ccc2c(=O)[nH]ccc2c1)C(=O)N1C[C@H](CO)[C@@H](O)C1` [ZINC001350153389] was 93.3%; that for `CN(C[C@H]1CCCN1C)C(=O)[C@]1(C)CC(c2ccccc2Cl)=NO1` [ZINC001362573982] was 94.8%.
For the molecule `O=C([C@@H]1CCc2nnc(O)n2C1)N1CC(CNC(=O)C(F)(F)F)C1` [ZINC001363211634], the remaining activity at 1 µM worked out at 78.6%.
The value for `O=S(=O)(N[C@@H]1CCc2nnnn2CC1)c1cnc2n1CCCC2` [ZINC001363999416] was 104%; that for `COC[C@@H](O)CN1CC[C@H](NC(=O)c2c(C)c(C)nn(C)c2=O)C1` [ZINC001365986475] was 109%.
Regarding `O=C(CCn1cccn1)NCCN1CCN(CCn2cccn2)CC1` [ZINC001369886058], the remaining activity at 1 µM was 111%.
The value for `CCC1(C(=O)NCC[C@@H]2CCN(Cc3nccn3C)C2)CCCC1` [ZINC001377717241] was 102%; that for `Cc1ccnc(CN[C@@H](C)CCNC(=O)c2ccn(C(C)C)c2C)n1` [ZINC001381212829] was 71.1%; that for `O=C(NCC1CN(CCC2CCCC2)C1)C1(c2cccnc2)CC1` [ZINC001391502525] was 43.6%.
On to `C[C@@H]1CCC[C@H](CCN(C)CCNC(=O)c2c3c(nn2C)CCC3)C1` [ZINC001399642198], for which the remaining activity at 1 µM amounted to 21.2%.
Turning to `COc1ccc(C(=O)N(C)C[C@H](C)NCC2CCC(C)(C)CC2)nn1` [ZINC001403624658], the remaining activity at 1 µM amounted to 65.3%.
The value for `CC(=O)N[C@@H]1CCN(S(=O)(=O)c2cnn([C@@H]3CCOC3)c2)C1` [ZINC001413380655] was 118%; that for `CCN1CCCC[C@H]1C(=O)NC[C@@H](O)CNC(=O)c1cnccn1` [ZINC001416718427] was 80.5%; that for `CC(C)N1CC[C@H](CCNC(=O)c2cc(-c3cccnc3)on2)C1` [ZINC001418905447] was 130%.
On to `Cc1cc(C)nc(C(=O)NCCC2CCN(CCOC(C)C)CC2)c1` [ZINC001419404744], for which the remaining activity at 1 µM is 19.6%.
Consider `COCC1(C(=O)N2CCC[C@@H](N(C)CC[C@H](C)F)C2)CC1` [ZINC001420054689], for which the remaining activity at 1 µM was found to be 78.5%.
Take `Cc1cnc(CN2CC[C@@H](CCNC(=O)c3cncs3)C2)s1` [ZINC001437918206]: the remaining activity at 1 µM came to 103%.
The figure for `Cc1cc(C)c(/C=C\CN2CCC[C@@H](O)C2)cc1C` [ZINC001474404955] is 62.3%; for `O=C(C[C@]1(O)CCCNC1)Nc1cn2cc(Br)ncc2n1` [ZINC001515357045] it is 104%; for `O=C(OC[C@@H]1CCN1Cc1ccccc1)c1nccc2occc12` [ZINC001525937517] it is 117%.
As for `Cc1cccc2c1CCN2C(=O)[C@@H]1CC[C@H]2CCCC[C@@H]2N1` [ZINC001579778746], the remaining activity at 1 µM is 19.6%.
